According to US20250297152A1, “FLUORINATED SUBSTITUTED OLEFIN REFRIGERANTS AND METHODS OF COOLING ELECTRONICS” (Honeywell International Inc., priority 2024, published 2025):

Tests used:
[1] = Dielectric constant (Agilent 85070 Dielectric Probe; ASTM D150-11); format: physicochemical; conditions: for Dielectric Constant (20 GHz): Table 3, values understood as 'about'; for Calculated Dk at 20 GHz: Table E1, ambient pressure, room temperature (approximately 23° C.)
Experimental: “Dielectric Constant” means the dielectric constant as measured in accordance with ASTM D150-11 at room temperature at 20 giga hertz (GHz).
(§1) The boiling point (“BP”) and dielectric constant (“Dk”) of trans- and cis-secBuFO and trans- and cis-tBuFO were determined and the results are reported below in Table E1. The dielectric property of each of trans- and cis-secBuFO and trans- and cis-tBuFO was determined using the Agilent 85070 Dielectric Probe. All measurements were made at ambient pressure and room temperature (approximately 23° C.). Prior to making measurements, the system was calibrated from 1 GHz to 20 GHz with an open circuit, a short circuit, and DI water (@22.4° C.) standard. The result of the calibration is shown in the Table E1 below for DI H2O, and is consistent with DI water at 22.4° C. The accuracy of the probe is given as: Dielectric constant, er′=er′+/−0.05|er*| with er″=er″+/−0.05|er*| and (loss=er″/er′).

[2] = format: physicochemical; conditions: for BP: Table E1
Experimental: as §1

[3] = Toxicological screening study: in vivo acute oral toxicity and 4-hour acute inhalation toxicity; conditions: acute oral 2,000 mg/kg/day; 4-hour acute inhalation at 18,375 ppm
Experimental: “Acceptable toxicity” means a fluid that has toxicity within acceptable limits. This is experimentally determined by a toxicological screening study to assess in vivo acute oral toxicity at a dosage of 2,000 mg/kg/day and 4-hour acute inhalation toxicity at a concentration of about 20,000 ppm.
A fluid including the trans isomer of the SecBuFO refrigerant was subjected experimentally a toxicological screening study to assess in vivo acute oral toxicity at a dosage of 2,000 mg/kg/day and 4-hour acute inhalation toxicity at a concentration of 18,375 ppm.

SMILES	Dielectric Constant (20 GHz) [1]	Calculated Dk at 20 GHz [1]	Boiling point [2]	BP [2]	toxicology screening study outcome [3]
F/C=C/C(F)(C(F)(F)F)C(F)(F)C(F)(F)F (stereo not drawn) [trans-secBuFO, trans-1,3,4,4,5,5,5-heptafluoro-3-(trifluoromethyl)pent-1-ene]	2.11	2.11	55.5-55.9 °C	55.5-55.9 °C	passed
F/C=C\C(C(F)(F)F)(C(F)(F)F)C(F)(F)F [cis-tBuFO, cis-1,4,4,4-tetrafluoro-3,3-bis(trifluoromethyl)but-1-ene]	6.51	6.51	76.19 °C	76.19 °C	–
F/C=C/C(C(F)(F)F)(C(F)(F)F)C(F)(F)F [trans-tBuFO, trans-1,4,4,4-tetrafluoro-3,3-bis(trifluoromethyl)but-1-ene]	2.15	2.15	57.9 °C	57.9 °C	–
F/C=C\C(F)(C(F)(F)F)C(F)(F)C(F)(F)F (stereo not drawn) [cis-secBuFO, cis-1,3,4,4,5,5,5-heptafluoro-3-(trifluoromethyl)pent-1-ene]	6.48	6.48	79.27 °C	79.27 °C	–
